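Interpolation was linear, between the two tested concentrations surrounding the appropriate level; five concentrations were tested over 48 hours in 96-well plates. GI50 = concentration required for 50% inhibition of growth. The concentration for full growth arrest is given as TGI.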
Legend:
Assay in all cases: DTP human tumour cell line panel, 48 h
[1] = test system: SN12C renal
[2] = test system: CCRF-CEM leukemia
[3] = test system: SW-620 colon
[4] = test system: SF-268 CNS
[5] = test system: MALME-3M melanoma
[6] = test system: SK-MEL-2 melanoma
[7] = test system: SNB-19 CNS
[8] = test system: PC-3 prostate
[9] = test system: HS 578T breast
[10] = test system: SR leukemia

SMILES | TGI [1] [µM] | TGI [2] [µM] | TGI [3] [µM] | TGI [4] [µM] | TGI [5] [µM] | TGI [6] [µM] | TGI [7] [µM] | GI50 [8] [µM] | TGI [8] [µM] | GI50 [1] [µM] | GI50 [3] [µM] | GI50 [4] [µM] | GI50 [9] [µM] | TGI [9] [µM] | GI50 [10] [µM] | TGI [10] [µM] | GI50 [7] [µM] | GI50 [2] [µM] | GI50 [5] [µM] | GI50 [6] [µM]
COc1cccc(C2SCc3nc4ccccc4n32)c1 (stereo unspecified) | > 100 | > 100 | > 100 | > 100 | > 100 | > 100 | > 100 |  |  |  |  |  |  |  |  |  |  |  |  | 
CCNCCNc1cc(-c2ccc(C(F)(F)F)cc2)c(C#N)c2nc3cc(Cl)c(Cl)cc3n12 | 3.46 |  | 1.14 | 3.22 |  |  | 3.65 | 1.71 | 3.4 | 1.77 | 0.306 | 1.6 | 1.81 | 3.91 | 0.185 | 0.439 | 1.88 |  |  | 
Cc1[nH]nc2ncc(C(=O)N3CCC[C@H]3c3ccc(Cl)cc3)cc12 | > 100 | > 100 | > 100 | > 100 | > 100 | > 100 | > 100 | 45.6 | > 100 | > 100 | 76 | > 100 | > 100 | > 100 |  |  | > 100 | 36.1 | > 100 | > 100
N#CC1=C(N)Oc2c(sc3c(Br)cccc23)C1c1ccc(Cl)cc1 (stereo unspecified) | 17.6 | 2.36 | > 100 | 7.62 |  | 12.3 | 12.8 | 0.56 | 5.55 | 2.88 | 0.408 | 0.917 | 0.855 | 18.1 | 0.342 | 2.69 | 0.822 | 0.368 |  | 0.672
O=S(=O)(NCCCNc1cc(-c2cn(-c3ccccc3)nc2-c2cccc(O)c2)ccn1)c1ccc(Br)cc1 | 9.8 |  | 3.65 | 4.98 |  | 3.84 | 14.7 | 2.11 | 7.83 | 2.75 | 1.62 | 1.45 | 1.16 | 4.82 | 1.51 | 5.49 | 2.98 |  |  | 1.95
C=C1CC2(CCS(=O)(=O)c3ccccc32)OC1=O (stereo unspecified) |  | 11 | 11.4 | 38.4 | 26.3 | 23.6 | 22.8 |  |  |  |  |  |  |  |  |  |  |  |  | 
Cc1c2c(nn1-c1ccc(S(=O)(=O)NC(=S)NC(=O)c3ccccc3)cc1)-c1ccccc1CC2 | > 100 | > 100 | > 100 | > 100 |  | > 100 | > 100 | 42 | > 100 | 34.4 | > 100 | 29.3 |  |  | 0.759 | > 100 | 96.4 | > 100 |  | > 100
Cc1ccc(OCCOCCOCCOCCOCCOc2ccc(C)n(O)c2=S)c(=S)n1O | > 100 | > 100 | > 100 | > 100 | > 34.6 | 40.5 | > 100 | 0.345 | > 100 | 0.0496 | 0.0544 | 0.0693 | 1.67 | 74.6 |  |  | 0.118 | 0.0504 | 0.109 | 4.81
COc1cc(CCC(=O)NC[C@@H](O)c2ccccc2)ccc1O | > 100 | > 100 | > 100 | > 100 | > 100 | > 100 |  | > 100 | > 100 | > 100 | > 100 | > 100 |  |  | 61.6 | > 100 |  | > 100 | > 100 | > 100
NCCSC(c1ccccc1)(c1ccccc1)c1ccccc1 | 11.7 | 6 | 2.48 | 11.2 |  | 2.72 | 20.1 | 1.36 | 11.5 | 0.739 | 0.558 | 0.966 | 1.09 | 5.29 | 0.34 | 1.82 | 5.36 | 1.85 |  | 1.18
Cn1c(-c2c(N)n(Cc3ccc(F)cc3)c3nc(C#N)c(C#N)nc23)nc2ccccc21 | 20 |  | 21 | > 50 |  | 34.9 | > 50 | 2.61 | > 50 | 2.09 | 2.47 | 5.47 | 4.67 | 26.7 | 1.01 | > 50 | 12 |  |  | 3.62
COc1ccc2nc3cccc([N+](=O)[O-])c3c(NC(C)CN(C)C)c2c1 (stereo unspecified) | 9.6 | 7.62 | 12.5 | 11.9 |  |  | 7.91 |  | 6.85 | 2.67 | 1.9 | 2.64 |  |  | 2.16 |  | 2.63 | 2.21 |  | 
COc1cc(/C=C/C(=O)c2c(-c3ccc(F)cc3)nc3sc(C)nn23)cc(OC)c1OC | 8.65 | 5.95 | 4.51 | 8.96 | 16.9 |  | 13.1 |  |  | 2.48 | 2.02 | 2.74 | 5.39 | > 100 | 1.77 | 5.27 | 3.24 | 2 | 4.26 | 
N#CCc1nnc(N)o1 | > 100 | > 100 | > 100 | > 100 | > 100 | > 100 | > 100 |  |  |  |  |  |  |  |  | > 100 |  |  |  | 
O=C(O)CN(c1ccc(F)cc1)S(=O)(=O)c1ccccc1 | > 100 | > 100 | > 100 | > 100 | > 100 | > 100 | > 100 |  |  |  |  |  |  |  |  |  |  |  |  | 
COC(=O)C1[C@H](c2ccc3c(c2)OCO3)OC(=O)[C@]1(C(=O)OC)C(=O)c1ccc(OC)c(OC)c1 (stereo partly specified) | > 100 | > 100 | > 100 |  | > 100 | 79.9 |  |  |  |  |  |  |  |  |  | > 100 |  |  |  | 
CC[PH+](CC)CC.CC[PH+](CC)CC.[Au] | 31.4 | 11.9 | 15.6 | 30.1 | 24.7 | 15.8 | 26.4 |  |  | 16.1 | 5.13 | 13.4 |  |  |  |  | 13.4 | 2.04 | 11.4 | 2.73

SMILES | TGI [1] [µM] | TGI [2] [µM] | TGI [3] [µM] | TGI [4] [µM] | TGI [5] [µM] | TGI [6] [µM] | TGI [7] [µM] | GI50 [8] [µM] | TGI [8] [µM] | GI50 [1] [µM] | GI50 [3] [µM] | GI50 [4] [µM] | GI50 [9] [µM] | TGI [9] [µM] | GI50 [10] [µM] | TGI [10] [µM] | GI50 [7] [µM] | GI50 [2] [µM] | GI50 [5] [µM] | GI50 [6] [µM]
CCOC(=O)CN(c1ccccc1)c1nc(=[N+](C)C)ss1 | 36.7 | 36.5 | > 100 | > 100 | 70.4 | 55.9 | > 100 |  |  |  |  |  |  |  |  | 41.9 |  |  |  | 
O=C(c1ccccc1)c1nc2ccc(C(F)(F)F)cc2nc1N1CCN(c2ccccc2)CC1 | > 100 | > 100 | > 100 | > 100 | > 100 | > 100 | > 100 | 47.1 | > 100 | 36.2 | 34.7 | 48 | 65 | > 100 |  |  | 71.5 | 21 | 48.2 | 48
COC(=O)CNc1nc(N(C)O)nc(N(C)O)n1 | > 100 | > 100 | > 100 | > 100 | 77.4 | 25.7 | > 100 | > 100 | > 100 | 9.17 | 5.07 | 1.83 | 8.96 | > 100 |  |  | 27.3 | 0.697 | 19.3 | 3.45
O=c1cccc2n1CC1CNC[C@H]2C1 | > 100 | > 100 | > 100 | > 100 | > 100 | > 100 | > 100 |  | > 100 |  |  |  |  | > 100 |  |  |  |  |  | 
Cc1ccc(C(=O)NCCN(C)C)c2nc3ccccc3cc12 | 10.2 | > 100 | 3.52 |  | > 100 | > 100 | 13.6 |  |  |  |  |  |  |  |  |  |  |  |  | 
CN(C)CCNC(=O)c1ccc2oc3cc4ccccc4c(=O)n3c2c1 | > 100 |  | > 100 | 93.2 |  | 63.5 | > 100 | 61.6 | > 100 | 46.6 | 28.6 | 32.6 |  |  | 32.9 | > 100 | 40.9 |  |  | 21.4
C=C1C(=O)C2=CC1CCC(=O)C1(C)CCC(OC(C)=O)C(C)(C)C1CC2O (stereo unspecified) | 12.5 |  | > 100 | 38.7 | 18.1 | 25.6 | 15 |  | 28.8 |  |  |  |  | 20.4 |  |  |  |  |  | 
COc1ccc(NC(=O)c2ccc(NC3=C(Cl)C(=O)N(Cc4ccccc4)C3=O)cc2)c(OC)c1 | 83.5 |  | > 100 | > 100 |  | 68.9 | > 100 | 25.7 | > 100 | 29.2 | 29.2 | 29.1 | > 100 | > 100 | 1.39 | 3.98 | 57.4 |  |  | 25.7
O=C(O)c1cn(C2CC2)c2cc(N3CCN(Cc4c(O)ccc5ccccc45)CC3)c(F)cc2c1=O | > 100 | > 100 | > 100 | > 100 | > 100 | > 100 | > 100 | 3.75 | > 100 | 5.38 | 4.12 | 56.8 | 2.74 | 17.2 |  |  | 91.5 | 20.5 | 4.07 | 15.1
Nc1ncn([C@H]2C[C@H](OP(=O)(O)OC[C@H]3O[C@@H](n4cnc5c(=O)[nH]c(N)nc54)C[C@@H]3O)[C@@H](CO)O2)c(=O)n1 | > 100 | > 100 | > 100 | > 100 | > 100 | > 100 | > 100 |  |  | 51.4 | > 100 | > 100 | > 100 | > 100 | > 100 | > 100 | > 100 | 9.01 | > 100 | > 100
Cc1ccc(C2=Nc3ccccc3S(=O)C(c3ccc4c(c3)OCO4)C2)cc1 (stereo unspecified) | 33.5 | 83.9 | 34.5 | 50.5 | > 100 | 41.6 | > 100 |  |  |  |  |  |  |  |  | > 100 |  |  |  | 
NC(N)=N/N=C/c1c(-c2cccnc2)nc2sc(Cl)cn12 |  | 23.9 | 20.7 | 52.7 |  | > 100 |  | 15.2 | 28.5 |  | 6.13 | 20.7 | 22.3 | 46.6 | 17.1 | > 100 |  | 6.66 |  | 42.8
N#Cc1c(N/N=C\c2ccc(Cl)cc2)nc(N)nc1N1CCOCC1 | > 100 | 78.9 | > 100 | > 100 |  | > 100 | > 100 | 24.6 | > 100 | 55.1 | 47.1 | > 100 | 41.1 | > 100 | 11.7 | 28.9 | > 100 | 25.8 |  | 99.2
O=C1C(=O)N(c2ccc(Cl)cc2)C(=O)C(=Nc2cccc3c(=O)[nH][nH]c(=O)c23)C1c1nc2ccccc2o1 (stereo unspecified) | > 100 | > 100 | > 100 | > 100 | > 100 | > 100 | > 100 |  |  |  |  |  |  |  |  | > 100 |  |  |  | 
C=CC(=O)Nc1cccc(Oc2nc(Nc3ccc(N4CCN(C)CC4)cc3OC)ncc2Cl)c1 | 8.31 | > 26.3 | 2.96 | 9.24 |  | 4.3 | 16.7 | 2.19 | 7.03 | 1.84 | 1.47 | 2.37 | 1.86 | 5.39 |  |  | 3.63 | 3.17 |  | 2.19
C=CC(=O)N1CC[C@H](n2nc(C#Cc3cc(OC)cc(OC)c3)c3c(N)ncnc32)C1 | > 100 | > 100 | > 100 | > 100 | > 100 | 52.1 | > 100 | 11.3 | > 100 | 4.43 | 15 | 4.19 | 1.71 | 9.82 |  |  | 7.66 | 4.57 | 15.6 | 8.49
